In patent US20150352108A1, “AMINO-PYRIMIDINE COMPOUNDS AS INHIBITORS OF TBK1 AND/OR IKK EPSILON” (Alzheimer's Institute of America, priority 2009, published 2015) one finds IC50 data, which are given here for one compound.

As usually defined, the pIC50 is the IC50 on a negative log10 scale, so that one unit is a factor of ten.

The target of the assay is T1, IKKε (Homo sapiens, UniProt Q14164).
T1 construct: His-tag; made in house; host or cells: Sf9 insect cells
T1 sequence (Q14164 1-716): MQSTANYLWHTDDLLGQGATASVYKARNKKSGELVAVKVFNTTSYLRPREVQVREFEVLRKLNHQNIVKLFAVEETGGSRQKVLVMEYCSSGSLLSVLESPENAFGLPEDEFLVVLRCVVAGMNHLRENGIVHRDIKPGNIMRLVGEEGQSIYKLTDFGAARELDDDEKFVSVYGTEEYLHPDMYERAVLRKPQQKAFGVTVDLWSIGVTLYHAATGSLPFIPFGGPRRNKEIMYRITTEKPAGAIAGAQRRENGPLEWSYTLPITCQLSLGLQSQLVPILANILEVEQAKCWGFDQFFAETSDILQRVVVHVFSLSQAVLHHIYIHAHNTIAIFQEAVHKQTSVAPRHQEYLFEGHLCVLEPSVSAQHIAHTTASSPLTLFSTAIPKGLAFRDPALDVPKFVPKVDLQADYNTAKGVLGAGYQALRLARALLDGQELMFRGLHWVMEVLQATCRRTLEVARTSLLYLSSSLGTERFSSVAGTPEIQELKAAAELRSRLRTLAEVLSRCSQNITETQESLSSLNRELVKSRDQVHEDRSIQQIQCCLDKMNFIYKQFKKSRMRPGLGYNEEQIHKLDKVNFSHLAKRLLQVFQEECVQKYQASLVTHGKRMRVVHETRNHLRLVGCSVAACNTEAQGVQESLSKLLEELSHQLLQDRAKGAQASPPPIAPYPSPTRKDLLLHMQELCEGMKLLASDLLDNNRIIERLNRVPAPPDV
In words: In-vitro IKKε kinase assay ([γ33]ATP filter-plate). The class given is biochemical. The settings on record: text bins; read-out: IC50 for inhibition of the kinase activity of IKKε. The procedure, abridged:
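His-tagged IKKε and TBK1 from Sf9 cells were assayed with myelin basic protein or casein and [γ33]ATP at 2×Km ATP (32 μM for IKKε, 60 μM for TBK1). Enzyme was 0.1 or 0.015 μg/ml for IKKε and 0.1 or 0.02 μg/ml for TBK1 (normal/sensitized). Reactions ran 30-45 min, were filter-captured, scintillation-counted, and normalized to DMSO after background subtraction.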

SMILES strings stand for the structures. pIC50: −log10 of the molar value. Some results are limits rather than exact numbers.

In the case of `N#Cc1cc(-c2ccnc(Nc3ccc(N4CCOCC4)cc3)n2)ccc1OC1CCOCC1` [Example 5, 5-(2-{[4-(Morpholin-4-yl)phenyl]amino}pyrimidin-4-yl)-2-(tetrahydro-2H-pyran-4-yloxy)benzaonitrile], the pIC50 is > 8.30.
